According to patent US20100063026A1, “ANTIBACTERIAL QUINOLINE DERIVATIVES” (priority 2007, published 2010):
≈ marks a conversion by molar mass, not a printed value.

Tests used:
[1] = test system: Staphylococcus aureus (ATCC29213); assay: Microtitre plate IC90 determination against non-mycobacterial strains: S. aureus; type: cell-based; settings: 90% inhibitory concentration for bacterial growth; 24 hours, 37° C., resazurin fluorescence
Method: (§1) The bacteria used in this study were grown overnight in flasks containing 100 ml Mueller-Hinton Broth (Becton Dickinson-cat. no. 275730) in sterile de-ionized water, with shaking, at 37° C. Stocks (0.5 ml/tube) were stored at -70° C. until use. Bacteria titrations were performed in microtiter plates to detect the TCID50, in which the TCID50 represents the dilution that gives rise to bacterial growth in 50% of inoculated cultures. In general, an inoculum level of approximately 100 TCID50 was used for susceptibility testing. […] Therefore resazurin (0.6 mg/ml) was added in a volume of 20 μl to all wells 3 hours after inoculation, and the plates were re-incubated overnight. A change in colour from blue to pink indicated the growth of bacteria.

[2] = test system: Streptococcus pneumoniae (ATCC6305); assay: Microtitre plate IC90 determination against non-mycobacterial strains: S. pneumoniae; type: cell-based; settings: 90% inhibitory concentration for bacterial growth; 24 hours, 37° C., resazurin fluorescence
Method: as §1

[3] = test system: Mycobacterium tuberculosis (strain H37RV); assay: In-vitro method for testing compounds against M. tuberculosis; type: cell-based; settings: Mycobacterium tuberculosis, H37RV, 168 h, 90% inhibitory concentration for bacterial growth; 7 days, 37° C., Resazurin fluorescence; read-out: IC90 MTB 1 H37RV
M. smegmatis ATCC607 = assay: In-vitro anti-bacterial activity against strain M. smegmatis ATCC607; settings: 90% inhibitory concentration for bacterial growth; 48 hours, 37° C., Alamar Blue fluorescence
Method: Flat-bottom, sterile 96-well plastic microtiter plates were filled with 180 μl of sterile deionized water, supplemented with 0.25% BSA. Subsequently, stock solutions (7.8× final test concentration) of compounds were added in 45 μl volumes to a series of duplicate wells in column 2 so as to allow evaluation of their effects on bacterial growth. Serial five-fold dilutions (45 μl in 180 μl) were made directly in the microtiter plates from column 2 to 11 using a customised robot system (Zymark Corp., Hopkinton, Mass.). Pipette tips were changed after every 3 dilutions to minimize pipetting errors with high hydrophobic compounds. Untreated control samples with (column 1) and without (column 12) inoculum were included in each microtiter plate. Approximately 250 CFU per well of bacteria inoculum, in a volume of 100 μl in 2.8× Mueller-Hinton broth medium, was added to the rows A to H, except column 12. The same volume of broth medium without inoculum was added to column 12 in row A to H. The cultures were incubated at 37° C. for 48 hours in a humidified 5% CO2 atmosphere (incubator with open air valve and continuous ventilation). At the end of incubation, two days after inoculation, the bacterial growth was quantitated fluorometrically. Therefore Alamar Blue (10×) was added to all wells in a volume of 20 μl and plates were incubated for another 2 hours at 50° C.
The fluorescence was read in a computer-controlled fluorometer (Cytofluor, Biosearch) at an excitation wavelength of 530 nm and an emission wavelength of 590 nm (gain 30). The percentage growth inhibition achieved by the compounds was calculated according to standard methods and expressed as IC90 (μg/ml) which defines the 90% inhibitory concentration for bacterial growth.

## COc1nc2ccc(Br)cc2cc1C(c1ccccc1)C(O)(CCCCN1CC2CC1CN2Cc1ccccc1)c1ccc2ccccc2c1 (stereo not shown) [Compound 23]
[1]
  IC90 STA 1 B29213: 2.3 µg/mL (≈ 3.16 µM)
[2]
  IC90 SPN 1 6305: 0.2 µg/mL (≈ 0.275 µM)
[3]
  IC90: 57.7 µg/mL (≈ 79.4 µM)
M. smegmatis ATCC607
  IC90 MSM 1 ATCC607: 0.5 µg/mL (≈ 0.688 µM)
